Source: ChEMBL document CHEMBL1146557, “An antiinflammatory galactolipid from rose hip (Rosa canina) that inhibits chemotaxis of human peripheral blood neutrophils in vitro” (J Nat Prod, 2003)

Tests used:
[1] = Inhibition of chemotaxis in human polymorphonuclear leukocytes assessed as inhibition of migration towards zymosan-activated human serum at 100 ug/ml after 30 mins by Boyden chamber technique; assay type: functional; details: 0.5 h
[2] = Cytotoxicity against human polymorphonuclear leukocyte assessed as cell viability at 50 to 100 ug/ml by trypan blue exclusion method; details: polymorphonuclear leukocytes, read-out: INH
[3] = Inhibition of chemotaxis in human polymorphonuclear leukocytes assessed as inhibition of migration towards zymosan-activated human serum at 50 ug/ml after 30 mins by Boyden chamber technique; assay type: functional; details: 0.5 h
[4] = Inhibition of chemotaxis in human polymorphonuclear leukocytes assessed as inhibition of migration towards zymosan-activated human serum at 10 ug/ml after 30 mins by Boyden chamber technique; assay type: functional; details: 0.5 h
[5] = Inhibition of chemotaxis in human polymorphonuclear leukocytes assessed as inhibition of migration towards zymosan-activated human serum at 1 ug/ml after 30 mins by Boyden chamber technique; assay type: functional; details: 0.5 h
[6] = Inhibition of chemotaxis in human polymorphonuclear leukocytes assessed as inhibition of migration towards zymosan-activated human serum at 0.1 ug/ml after 30 mins by Boyden chamber technique; assay type: functional; details: 0.5 h

Compound: CC/C=C\C/C=C\C/C=C\CCCCCCCC(=O)OC[C@H](CO[C@@H]1O[C@H](CO)[C@H](O)[C@H](O)C1O)OC(=O)CCCCCCC/C=C\C/C=C\C/C=C\CC (single isomer, unassigned)
- inhibition at 100 µg/mL [1]: 82%
- viability [2]: 100%
- inhibition at 50 µg/mL [3]: 77%
- inhibition at 10 µg/mL [4]: 62%
- inhibition at 1 µg/mL [5]: 64%
- inhibition at 0.1 µg/mL [6]: 7%
